Measured values taken from ChEMBL document CHEMBL4814045, “Discovery of novel Staphylococcus aureus penicillin binding protein 2a inhibitors by multistep virtual screening and biological evaluation” (Bioorg Med Chem Lett, 2021).
pIC50, pKd: −log10 of the molar value. Values after ≈ are worked out from the molar mass of the structure shown.

Key:
[1] = test system: Staphylococcus aureus; assay: Antibacterial activity against Staphylococcus aureus […]; format: functional
[2] = test system: L02; assay: Cytotoxicity against human LO2 cells; format: cell-based
[3] = test system: Staphylococcus aureus; assay: Antibacterial activity against methicillin-resistant Staphylococcus aureus ATCC 33591; format: functional
[4] = target: T1, MecA (Staphylococcus aureus, UniProt Q7DHH4); assay: Binding affinity to Staphylococcus aureus PBP2a assessed as equilibrium dissociation constant by SPR assay
T1 sequence (Q7DHH4 whole entry): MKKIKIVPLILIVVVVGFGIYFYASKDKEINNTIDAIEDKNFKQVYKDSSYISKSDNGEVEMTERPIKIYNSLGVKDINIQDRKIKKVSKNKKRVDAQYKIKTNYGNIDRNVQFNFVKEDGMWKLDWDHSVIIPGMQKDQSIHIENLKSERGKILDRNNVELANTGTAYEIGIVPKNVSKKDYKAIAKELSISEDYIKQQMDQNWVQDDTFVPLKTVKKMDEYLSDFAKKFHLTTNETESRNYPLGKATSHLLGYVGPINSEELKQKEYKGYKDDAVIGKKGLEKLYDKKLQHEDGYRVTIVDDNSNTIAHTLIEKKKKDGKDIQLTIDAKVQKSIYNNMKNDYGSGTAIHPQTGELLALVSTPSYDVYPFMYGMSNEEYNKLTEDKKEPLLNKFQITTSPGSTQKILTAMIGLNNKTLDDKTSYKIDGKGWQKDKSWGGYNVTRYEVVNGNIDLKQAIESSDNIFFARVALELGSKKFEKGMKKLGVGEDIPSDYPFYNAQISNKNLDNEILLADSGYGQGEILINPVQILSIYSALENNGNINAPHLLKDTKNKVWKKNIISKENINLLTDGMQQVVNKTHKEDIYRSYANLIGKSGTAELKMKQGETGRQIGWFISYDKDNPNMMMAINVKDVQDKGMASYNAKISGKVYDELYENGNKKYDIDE

[5] = target: T2, MecA (Staphylococcus aureus) (UniProt Q7DHH4); assay: Binding affinity to Staphylococcus aureus PBP2a assessed as association constant by SPR assay
T2 sequence (whole entry): T1 sequence (Q7DHH4 whole entry)

[6] = test system: Staphylococcus aureus; assay: Antibacterial activity against methicillin-resistant Staphylococcus aureus 04 clinical isolate by broth dilution assay; format: functional
[7] = test system: Staphylococcus aureus; assay: Antibacterial activity against methicillin-resistant Staphylococcus aureus 13 clinical isolate by broth dilution assay; format: functional
[8] = test system: Staphylococcus aureus; assay: Antibacterial activity against methicillin-resistant Staphylococcus aureus 08 clinical isolate by broth dilution assay; format: functional
[9] = test system: Staphylococcus aureus; assay: Bactericidal activity against methicillin-resistant Staphylococcus aureus 03 clinical isolate by broth dilution assay; format: functional
[10] = test system: Staphylococcus aureus; assay: Bactericidal activity against methicillin-resistant Staphylococcus aureus 09 clinical isolate by broth dilution assay; format: functional
[11] = test system: Staphylococcus aureus; assay: Antibacterial activity against methicillin-resistant Staphylococcus aureus 02 clinical isolate by broth dilution assay; format: functional
[12] = test system: Staphylococcus aureus; assay: Bactericidal activity against methicillin-resistant Staphylococcus aureus 13 clinical isolate by broth dilution assay; format: functional
[13] = test system: Staphylococcus aureus; assay: Bactericidal activity against methicillin-resistant Staphylococcus aureus 11 clinical isolate by broth dilution assay; format: functional
[14] = test system: Staphylococcus aureus; assay: Bactericidal activity against methicillin-resistant Staphylococcus aureus 01 clinical isolate by broth dilution assay; format: functional
[15] = test system: Staphylococcus aureus; assay: Antibacterial activity against methicillin-resistant Staphylococcus aureus 09 clinical isolate by broth dilution assay; format: functional
[16] = test system: Staphylococcus aureus; assay: Antibacterial activity against methicillin-resistant Staphylococcus aureus 10 clinical isolate by broth dilution assay; format: functional
[17] = test system: Staphylococcus aureus; assay: Bactericidal activity against methicillin-resistant Staphylococcus aureus 08 clinical isolate by broth dilution assay; format: functional
[18] = test system: Staphylococcus aureus; assay: Bactericidal activity against methicillin-resistant Staphylococcus aureus 07 clinical isolate by broth dilution assay; format: functional
[19] = test system: Staphylococcus aureus; assay: Antibacterial activity against methicillin-resistant Staphylococcus aureus 01 clinical isolate by broth dilution assay; format: functional
[20] = test system: Staphylococcus aureus; assay: Bactericidal activity against methicillin-resistant Staphylococcus aureus 12 clinical isolate by broth dilution assay; format: functional
[21] = test system: Staphylococcus aureus; assay: Antibacterial activity against methicillin-resistant Staphylococcus aureus 11 clinical isolate by broth dilution assay; format: functional
[22] = test system: Staphylococcus aureus; assay: Bactericidal activity against methicillin-resistant Staphylococcus aureus 02 clinical isolate by broth dilution assay; format: functional
[23] = test system: Staphylococcus aureus; assay: Antibacterial activity against methicillin-resistant Staphylococcus aureus 12 clinical isolate by broth dilution assay; format: functional
[24] = test system: Staphylococcus aureus; assay: Bactericidal activity against methicillin-resistant Staphylococcus aureus 10 clinical isolate by broth dilution assay; format: functional
[25] = test system: Staphylococcus aureus; assay: Antibacterial activity against methicillin-resistant Staphylococcus aureus 03 clinical isolate by broth dilution assay; format: functional
[26] = test system: Staphylococcus aureus; assay: Bactericidal activity against methicillin-resistant Staphylococcus aureus 05 clinical isolate by broth dilution assay; format: functional
[27] = test system: Staphylococcus aureus; assay: Antibacterial activity against methicillin-resistant Staphylococcus aureus 06 clinical isolate by broth dilution assay; format: functional
[28] = test system: Staphylococcus aureus; assay: Bactericidal activity against methicillin-resistant Staphylococcus aureus 04 clinical isolate by broth dilution assay; format: functional
[29] = test system: Staphylococcus aureus; assay: Antibacterial activity against methicillin-resistant Staphylococcus aureus 07 clinical isolate by broth dilution assay; format: functional
[30] = test system: Staphylococcus aureus; assay: Antibacterial activity against methicillin-resistant Staphylococcus aureus 05 clinical isolate by broth dilution assay; format: functional
[31] = test system: Staphylococcus aureus; assay: Bactericidal activity against methicillin-resistant Staphylococcus aureus 06 clinical isolate by broth dilution assay; format: functional

## COc1ccc(CCNC(=O)COc2ccc3c(c2)OC2(CCN(C(C)=O)CC2)CC3=O)cc1OC
[1]
  MIC: 16 µg/mL (≈ 32.2 µM)
[2]
  pIC50: 5.11
[3]
  MIC: 64 µg/mL (≈ 129 µM)

## COc1ccc(-c2cc(=O)oc3c(C)c(OCC(=O)N[C@@H](Cc4c[nH]c5ccc(O)cc45)C(=O)O)ccc23)cc1
[1]
  MIC: 4 µg/mL (≈ 7.37 µM)
[4]
  pKd: 6.58
[5]
  Ka: 5.65 10^5/M/s
[2]
  pIC50: 4.94
[3]
  MIC: 4 µg/mL (≈ 7.37 µM)

## COc1cc2c(c(OC)c1OC)-c1ccc(NCC(=O)NCCc3c[nH]c4ccccc34)c(=O)cc1[C@@H](NC(C)=O)CC2
[1]
  MIC: 2 µg/mL (≈ 3.42 µM)
[4]
  pKd: 6.77
[5]
  Ka: 3.48 10^5/M/s
[2]
  pIC50: < 4.70
[3]
  MIC: 4 µg/mL (≈ 6.84 µM)

## COc1cccc(/C=C2\Oc3cc(OCC(=O)N[C@@H](Cc4c[nH]c5ccccc45)C(=O)O)ccc3C2=O)c1
[1]
  MIC: 4 µg/mL (≈ 7.8 µM)
[2]
  pIC50: < 4.70
[3]
  MIC: 8 µg/mL (≈ 15.6 µM)

## Cc1ccc(NC(=O)[C@H](Cc2c[nH]c3ccccc23)NC(=O)C2CCN(C(=O)CNC(=O)OC(C)(C)C)CC2)cc1
[1]
  MIC: 2 µg/mL (≈ 3.56 µM)
[6]
  MIC: 4 µg/mL (≈ 7.12 µM)
[4]
  pKd: 6.89
[7]
  MIC: 16 µg/mL (≈ 28.5 µM)
[8]
  MIC: 0.5 µg/mL (≈ 0.89 µM)
[9]
  MBC: 128 µg/mL (≈ 228 µM)
[10]
  MBC: 64 µg/mL (≈ 114 µM)
[11]
  MIC: 4 µg/mL (≈ 7.12 µM)
[12]
  MBC: 128 µg/mL (≈ 228 µM)
[5]
  Ka: 3.28 10^5/M/s
[13]
  MBC: 128 µg/mL (≈ 228 µM)
[2]
  pIC50: < 4.70
[14]
  MBC: 32 µg/mL (≈ 57 µM)
[15]
  MIC: 16 µg/mL (≈ 28.5 µM)
[16]
  MIC: 4 µg/mL (≈ 7.12 µM)
[17]
  MBC: 32 µg/mL (≈ 57 µM)
[18]
  MBC: 64 µg/mL (≈ 114 µM)
[19]
  MIC: 2 µg/mL (≈ 3.56 µM)
[20]
  MBC: 256 µg/mL (≈ 456 µM)
[21]
  MIC: 2 µg/mL (≈ 3.56 µM)
[22]
  MBC: 64 µg/mL (≈ 114 µM)
[3]
  MIC: 2 µg/mL (≈ 3.56 µM)
[23]
  MIC: 8 µg/mL (≈ 14.2 µM)
[24]
  MBC: 64 µg/mL (≈ 114 µM)
[25]
  MIC: 8 µg/mL (≈ 14.2 µM)
[26]
  MBC: 8 µg/mL (≈ 14.2 µM)
[27]
  MIC: 4 µg/mL (≈ 7.12 µM)
[28]
  MBC: 64 µg/mL (≈ 114 µM)
[29]
  MIC: 4 µg/mL (≈ 7.12 µM)
[30]
  MIC: 1 µg/mL (≈ 1.78 µM)
[31]
  MBC: 64 µg/mL (≈ 114 µM)

## COc1ccc(NC(=O)[C@H]2Oc3c(c(=O)oc4ccccc34)[C@@H]2c2ccc(CCCN3CCCC3=O)cc2)cc1
[1]
  MIC: 128 µg/mL (≈ 238 µM)
[4]
  pKd: 4.06
[5]
  Ka: 2.46 10^4/M/s
[2]
  pIC50: < 4.70
[3]
  MIC: 64 µg/mL (≈ 119 µM)
